Experimental data from patent US9751869B2, “LXR modulators” (BRISTOL-MYERS SQUIBB COMPANY, priority 2013, dated 2017).

Molecular target: T1, LXRβ (Homo sapiens, UniProt P55055)
T1 construct: Co-transfection expression plasmids, comprising full-length LXRα (pCMX-h LXRα or LXRβ (pCMX-hLXRβ)); expressed in transfected cells; host or cells: CV-1 African green monkey kidney cells, transient transfection with pCMX-hLXRβ
T1 sequence (P55055 1-460): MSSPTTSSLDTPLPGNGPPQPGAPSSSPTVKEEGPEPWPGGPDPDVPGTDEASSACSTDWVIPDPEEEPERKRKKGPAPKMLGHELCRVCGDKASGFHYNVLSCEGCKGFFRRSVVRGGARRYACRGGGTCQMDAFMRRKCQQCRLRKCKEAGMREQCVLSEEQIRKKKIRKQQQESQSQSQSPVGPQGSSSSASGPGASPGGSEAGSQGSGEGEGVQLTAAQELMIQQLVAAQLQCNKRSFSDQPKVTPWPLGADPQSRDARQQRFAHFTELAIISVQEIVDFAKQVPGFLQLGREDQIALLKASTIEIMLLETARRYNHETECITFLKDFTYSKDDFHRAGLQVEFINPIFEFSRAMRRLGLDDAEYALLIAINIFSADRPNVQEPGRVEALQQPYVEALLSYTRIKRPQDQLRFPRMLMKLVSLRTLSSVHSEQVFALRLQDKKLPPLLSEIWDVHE
T1 sequence (P19793 1-462 partner): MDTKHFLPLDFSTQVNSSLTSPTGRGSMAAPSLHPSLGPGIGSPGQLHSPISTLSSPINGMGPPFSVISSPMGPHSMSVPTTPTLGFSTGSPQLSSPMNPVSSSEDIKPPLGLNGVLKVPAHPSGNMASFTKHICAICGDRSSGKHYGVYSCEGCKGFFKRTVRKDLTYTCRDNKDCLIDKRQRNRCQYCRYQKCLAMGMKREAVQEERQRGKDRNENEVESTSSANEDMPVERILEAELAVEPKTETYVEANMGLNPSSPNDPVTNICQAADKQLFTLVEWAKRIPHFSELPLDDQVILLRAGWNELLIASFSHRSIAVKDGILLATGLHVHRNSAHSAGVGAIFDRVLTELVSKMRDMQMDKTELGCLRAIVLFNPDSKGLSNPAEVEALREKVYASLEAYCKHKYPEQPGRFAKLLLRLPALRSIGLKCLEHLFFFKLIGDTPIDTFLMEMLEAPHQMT
Assay: LXR/LXRE co-transfection assay (luciferase reporter) in CV-1 cells, LXRβ
Format: cell-based
Conditions: for EC50: CV-1 cells transfected with pCMX-hLXRβ and LXREx1-Tk-Luciferase, 20 hours incubation, read-out: LXRbeta agonism EC50; for Emax: CV-1 cells, relative to maximum response of high control N-(3-((4-fluorophenyl)-(naphthalene-2-sulfonyl)amino)propyl)-2,2-dimethylpropionamide, read-out: LXRbeta % EFFICACY
Procedure, shortened: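 CV-1 cells transiently co-transfected with full-length human LXRβ, LXRE-Tk-luciferase reporter and β-galactosidase control, then exposed to compound (≤0.5% DMSO) for 20 h at 37 °C before luminescence read. EC50 from 10-point, half-log dose curves; efficacy relative to the sulfonamide high control, means of 2–3 experiments.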

Cc1nc(-c2ccc(OC(F)F)c(F)c2)c(-c2cc(-c3cccc(S(C)(=O)=O)c3)ccc2-c2cc(C(F)(F)CO)nn2C)o1 [Example 76, 2-(5-(3-(4-(4-(difluoromethoxy)-3-fluorophenyl)-2-methyloxazol-5-yl)-3′-(methylsulfonyl)biphenyl-4-yl)-1-methyl-1H-pyrazol-3-yl)-2,2-difluoroethanol]
EC50: 84 nM | Emax: 88%

Cc1nc(-c2ccc(OC(F)F)c(F)c2)c(-c2cc(-c3cc(F)c(CO)c(S(C)(=O)=O)c3)ccc2-c2cc(C(F)(F)CO)nn2C)o1 [Example 77, 2-(5-(3-(4-(4-(difluoromethoxy)-3-fluorophenyl)-2-methyloxazol-5-yl)-3′-fluoro-4′-(hydroxymethyl)-5′-(methylsulfonyl)biphenyl-4-yl)-1-methyl-1H-pyrazol-3-yl)-2,2-difluoroethanol]
EC50: 30 nM | Emax: 86%

CNC(=O)C(F)(F)c1cc(-c2ccc(-c3cc(F)c(CO)c(S(C)(=O)=O)c3)cc2-c2oc(C)nc2-c2ccc(OC(F)F)c(F)c2)n(C)n1 [Example 78, 2-(5-(3-(4-(4-(difluoromethoxy)-3-fluorophenyl)-2-methyloxazol-5-yl)-3′-fluoro-4′-(hydroxymethyl)-5′-(methylsulfonyl)biphenyl-4-yl)-1-methyl-1H-pyrazol-3-yl)-2,2-difluoro-N-methylacetamide]
EC50: 72 nM | Emax: 79%

Cc1nc(-c2ccc(OC(F)F)c(F)c2)c(-c2cc(-c3cc(F)c(CO)c(S(C)(=O)=O)c3)ccc2-c2cc(C(F)(F)C(=O)N(C)C)nn2C)o1 [Example 79, 2-(5-(3-(4-(4-(difluoromethoxy)-3-fluorophenyl)-2-methyloxazol-5-yl)-3′-fluoro-4′-(hydroxymethyl)-5′-(methylsulfonyl)biphenyl-4-yl)-1-methyl-1H-pyrazol-3-yl)-2,2-difluoro-N,N-dimethylacetamide]
EC50: 17 nM | Emax: 87%

Cc1nc(-c2ccc3c(c2)OC(F)(F)O3)c(-c2cc(-c3cc(F)c(CO)c(S(C)(=O)=O)c3)ccc2-c2cc(C(F)(F)C(=O)N(C)C)nn2C)o1 [Example 80, 2-(5-(3-(4-(2,2-difluorobenzo[d][1,3]dioxol-5-yl)-2-methyloxazol-5-yl)-3′-fluoro-4′-(hydroxymethyl)-5′-(methylsulfonyl)biphenyl-4-yl)-1-methyl-1H-pyrazol-3-yl)-2,2-difluoro-N,N-dimethylacetamide]
EC50: 131 nM | Emax: 58%

Cc1nc(-c2ccc3c(c2)OC(F)(F)O3)c(-c2cc(-c3cc(F)c(CO)c(S(C)(=O)=O)c3)ccc2-c2cc(C(F)(F)C(=O)N3CCOCC3)nn2C)o1 [Example 81, 2-(5-(3-(4-(2,2-difluorobenzo[d][1,3]dioxol-5-yl)-2-methyloxazol-5-yl)-3′-fluoro-4′-(hydroxymethyl)-5′-(methylsulfonyl)biphenyl-4-yl)-1-methyl-1H-pyrazol-3-yl)-2,2-difluoro-1-morpholinoethanone]
EC50: 184 nM | Emax: 43%

Cc1nc(-c2ccc3c(c2)OC(F)(F)O3)c(-c2cc(-c3cc(F)c(CO)c(S(C)(=O)=O)c3)ccc2-c2cc(C(F)(F)C(=O)NC(C)C)nn2C)o1 [Example 82, 2-(5-(3-(4-(2,2-difluorobenzo[d][1,3]dioxol-5-yl)-2-methyloxazol-5-yl)-3′-fluoro-4′-(hydroxymethyl)-5′-(methylsulfonyl)biphenyl-4-yl)-1-methyl-1H-pyrazol-3-yl)-2,2-difluoro-N-isopropylacetamide]
EC50: 59 nM | Emax: 33%

Cc1nc(-c2ccc3c(c2)OC(F)(F)O3)c(-c2cc(-c3cc(F)c(CO)c(S(C)(=O)=O)c3)ccc2-c2cc(C(F)(F)C(=O)N3CCCC3)nn2C)o1 [Example 83, 2-(5-(3-(4-(2,2-difluorobenzo[d][1,3]dioxol-5-yl)-2-methyloxazol-5-yl)-3′-fluoro-4′-(hydroxymethyl)-5′-(methylsulfonyl)-[1,1′-biphenyl]-4-yl)-1-methyl-1H-pyrazol-3-yl)-2,2-difluoro-1-(pyrrolidin-1-yl)ethanone]
EC50: 497 nM | Emax: 62%

Cc1nc(-c2ccc3c(c2)OC(F)(F)O3)c(-c2cc(-c3cc(F)c(CO)c(S(C)(=O)=O)c3)ccc2-c2cc(C(F)(F)C(=O)NC(C)(C)C)nn2C)o1 [Example 84, N-tert-butyl-2-(5-(3-(4-(2,2-difluorobenzo[d][1,3]dioxol-5-yl)-2-methyloxazol-5-yl)-3′-fluoro-4′-(hydroxymethyl)-5′-(methylsulfonyl)biphenyl-4-yl)-1-methyl-1H-pyrazol-3-yl)-2,2-difluoroacetamide]
EC50: 61 nM | Emax: 26%

CNC(=O)C(F)(F)c1cc(-c2ccc(-c3cc(F)cc(S(C)(=O)=O)c3)cc2-c2oc(C)nc2-c2ccc3c(c2)OC(F)(F)O3)n(C)n1 [Example 85, 2-(5-(3-(4-(2,2-difluorobenzo[d][1,3]dioxol-5-yl)-2-methyloxazol-5-yl)-3′-fluoro-5′-(methylsulfonyl)biphenyl-4-yl)-1-methyl-1H-pyrazol-3-yl)-2,2-difluoro-N-methylacetamide]
EC50: 588 nM | Emax: 55%

Cc1nc(-c2ccc3c(c2)OC(F)(F)O3)c(-c2cc(-c3cc(F)c(CO)c(S(C)(=O)=O)c3)ccc2-c2cc(C(F)(F)C(=O)NCCO)nn2C)o1 [Example 86, 2-(5-(3-(4-(2,2-difluorobenzo[d][1,3]dioxol-5-yl)-2-methyloxazol-5-yl)-3′-fluoro-4′-(hydroxymethyl)-5′-(methylsulfonyl)biphenyl-4-yl)-1-methyl-1H-pyrazol-3-yl)-2,2-difluoro-N-(2-hydroxyethyl)acetamide]
EC50: 715 nM | Emax: 37%

Cc1nc(-c2ccc3c(c2)OC(F)(F)O3)c(-c2cc(-c3cc(F)c(CO)c(S(C)(=O)=O)c3)ccc2-c2cc(C(F)(F)C(=O)NCC3CC3)nn2C)o1 [Example 87, N-(cyclopropylmethyl)-2-(5-(3-(4-(2,2-difluorobenzo[d][1,3]dioxol-5-yl)-2-methyloxazol-5-yl)-3′-fluoro-4′-(hydroxymethyl)-5′-(methylsulfonyl)biphenyl-4-yl)-1-methyl-1H-pyrazol-3-yl)-2,2-difluoroacetamide]
EC50: 134 nM | Emax: 33%

Cc1nc(-c2ccc3c(c2)OC(F)(F)O3)c(-c2cc(-c3cc(F)c(CO)c(S(C)(=O)=O)c3)ccc2-c2cc(C(F)(F)C(=O)NC3CC3)nn2C)o1 [Example 88, N-cyclopropyl-2-(5-(3-(4-(2,2-difluorobenzo[d][1,3]dioxol-5-yl)-2-methyloxazol-5-yl)-3′-fluoro-4′-(hydroxymethyl)-5′-(methylsulfonyl)biphenyl-4-yl)-1-methyl-1H-pyrazol-3-yl)-2,2-difluoroacetamide]
EC50: 85 nM | Emax: 49%

Cc1nc(-c2ccc3c(c2)OC(F)(F)O3)c(-c2cc(-c3cc(F)c(CO)c(S(C)(=O)=O)c3)ccc2-c2cc(C(F)(F)C(=O)NCC(N)=O)nn2C)o1 [Example 89, N-(2-amino-2-oxoethyl)-2-(5-(3-(4-(2,2-difluorobenzo[d][1,3]dioxol-5-yl)-2-methyloxazol-5-yl)-3′-fluoro-4′-(hydroxymethyl)-5′-(methylsulfonyl)biphenyl-4-yl)-1-methyl-1H-pyrazol-3-yl)-2,2-difluoroacetamide]
EC50: 4780 nM | Emax: 37%

Cc1nc(-c2ccc3c(c2)OC(F)(F)O3)c(-c2cc(-c3cc(F)c(CO)c(S(C)(=O)=O)c3)ccc2-c2cc(C(F)(F)C(=O)NCC(F)(F)F)nn2C)o1 [Example 90, 2-(5-(3-(4-(2,2-difluorobenzo[d][1,3]dioxol-5-yl)-2-methyloxazol-5-yl)-3′-fluoro-4′-(hydroxymethyl)-5′-(methylsulfonyl)biphenyl-4-yl)-1-methyl-1H-pyrazol-3-yl)-2,2-difluoro-N-(2,2,2-trifluoroethyl)acetamide]
EC50: 58 nM | Emax: 34%

CNC(=O)C(F)(F)c1cc(-c2ccc(-c3cc(F)c(CO)c(S(C)(=O)=O)c3)cc2-c2nc(C)oc2-c2ccc3c(c2)OC(F)(F)O3)n(C)n1 [Example 91, 2-(5-(3-(5-(2,2-difluorobenzo[d][1,3]dioxol-5-yl)-2-methyloxazol-4-yl)-3′-fluoro-4′-(hydroxymethyl)-5′-(methylsulfonyl)biphenyl-4-yl)-1-methyl-1H-pyrazol-3-yl)-2,2-difluoro-N-methylacetamide]
EC50: 135 nM | Emax: 45%
